Measurements taken from patent US20200369728A1, “PEPTIDOMIMETIC MACROCYCLES AND USES THEREOF” (Aileron Therapeutics, Inc., priority 2015, published 2020).
Bridge positions count the residues as written; N and C are the ends. Square brackets hold non-standard residues; d marks the D form. Peptide text beside a SMILES is read from it. Trp(6-Cl) = N[C@@H](Cc1c[nH]c2cc(Cl)ccc12)C(=O)O; R8 = C=CCCCCCC[C@@](C)(N)C(=O)O; hLeu = CC(C)CC[C@H](N)C(=O)O; S5 = C=CCCC[C@](C)(N)C(=O)O

Assays:
Caspase 3 = Caspase 3 detection assay in SJSA1 cells; assay type: cell-based; details: SJSA1, 48 h, Caspase 3 activation over DMSO-treated cells
RKO = experiment: Cell viability assay (MTT), RKO; details: read-out: RKO EC50 (72 h)
SJSA-1 cells = experiment: Cell lysis by peptidomimetic macrocycles (LDH release); assay type: cell-based; details: SJSA-1, 1 h
How it was run: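 SJSA-1 cells plated the day before, switched to RPMI with 1% FBS, then exposed 1 h at 37 °C to macrocycle at final 50 μM to 6.25 μM in 0.5% DMSO. LDH released into the supernatant was measured by kit. Controls: 0.5% DMSO (non-lytic), 10 μM melittin and 1% Triton X-100 (lytic).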

| Compound | caspase 0.3 μM (Caspase 3) | caspase 3 μM (Caspase 3) | caspase 10 μM (Caspase 3) | caspase 30 μM (Caspase 3) | EC50 (RKO) | 6.25 μM % Lysed cells (1 h LDH) (SJSA-1 cells) | 25 μM % Lysed cells (1 h LDH) (SJSA-1 cells) | 50 μM % Lysed cells (1 h LDH) (SJSA-1 cells) | caspase 1 μM (Caspase 3) |
| --- | --- | --- | --- | --- | --- | --- | --- | --- | --- |
| CC(=O)N[C@@H](CC(C)C)C(=O)N[C@H](C(=O)N[C@@H](Cc1ccccc1)C(=O)N[C@]1(C)CCCCCC/C=C/CCC[C@@](C)(C(=O)N[C@@H](CO)C(=O)N[C@@H](C)C(=O)N[C@@H](C)C(N)=O)NC(=O)[C@H](CCC(C)C)NC(=O)[C@H](CCC(N)=O)NC(=O)[C@H](C)NC(=O)[C@H](Cc2c[nH]c3ccccc23)NC(=O)[C@H](Cc2ccc(O)cc2)NC(=O)[C@H](C)NC1=O)[C@@H](C)O [compound 115] (Ac-LTF[R8]AYWAQ[hLeu][S5]SAA-NH2; staple (E) 4-11) | 1 | 10 | 26 | 32 | 5 to 15 µM | 0% | −1% | 6% |  |
| CC(=O)N[C@@H](CC(C)C)C(=O)N[C@H](C(=O)N[C@@H](Cc1ccccc1)C(=O)N[C@]1(C)CCCCCCC=CCCC[C@@](C)(C(=O)N[C@@H](CO)C(=O)N[C@@H](CC(C)C)C(=O)N[C@@H](C)C(N)=O)NC(=O)[C@H](CC(C)C)NC(=O)[C@H](CCC(N)=O)NC(=O)[C@H](C)NC(=O)[C@H](Cc2c[nH]c3ccccc23)NC(=O)[C@H](Cc2ccc(O)cc2)NC(=O)[C@H](C)NC1=O)[C@@H](C)O (single isomer, unassigned) [compound 118] | 1 | 2 | 18 | 27 | < 5 µM | 4% | 2% | 4% |  |
| CC(=O)N[C@@H](CC(C)C)C(=O)N[C@H](C(=O)N[C@@H](Cc1ccccc1)C(=O)N[C@]1(C)CCCCCCC=CCCC[C@@](C)(C(=O)N[C@@H](CO)C(=O)N[C@@H](C)C(=O)N[C@@H](C)C(N)=O)NC(=O)[C@H](CC2CCCCC2)NC(=O)[C@H](CCC(N)=O)NC(=O)[C@H](C)NC(=O)[C@H](Cc2c[nH]c3ccccc23)NC(=O)[C@H](Cc2ccc(O)cc2)NC(=O)[C@H](CCC(=O)O)NC1=O)[C@@H](C)O (single isomer, unassigned) [compound 148] | 1 | 11 | 23 | 31 | 15 to 30 µM | 0% | −1% | 0% |  |
| CC(=O)N[C@@H](CC(C)C)C(=O)N[C@H](C(=O)N[C@@H](Cc1ccc(F)c(F)c1)C(=O)N[C@]1(C)CCCCCC/C=C/CCC[C@@](C)(C(=O)N[C@@H](CO)C(=O)N[C@@H](C)C(=O)N[C@@H](C)C(N)=O)NC(=O)[C@H](CCC(C)C)NC(=O)[C@H](CCC(N)=O)NC(=O)[C@H](C)NC(=O)[C@H](Cc2c[nH]c3ccccc23)NC(=O)[C@H](Cc2ccc(O)cc2)NC(=O)[C@H](CCC(=O)O)NC1=O)[C@@H](C)O [compound 160] | 2 | 10 | 16 | 31 | > 30 µM | −1% | −1% | 1% |  |
| CC(=O)N[C@@H](CCC(=O)O)C(=O)N[C@H](C(=O)N[C@@H](Cc1ccccc1)C(=O)N[C@]1(C)CCCCCCC=CCCC[C@@](C)(C(=O)N[C@@H](C)C(=O)N[C@@H](C)C(=O)N[C@@H](C)C(=O)N[C@@H](C)C(=O)N[C@@H](C)C(=O)N[C@H](C)C(N)=O)NC(=O)[C@H](CC(C)C)NC(=O)[C@H](CCC(N)=O)NC(=O)[C@H](C)NC(=O)[C@H](Cc2c[nH]c3ccccc23)NC(=O)[C@H](Cc2ccc(O)cc2)NC(=O)[C@H](CCC(=O)O)NC1=O)[C@@H](C)O (single isomer, unassigned) [compound 341] | 3 | 11 | 14 | 21 | 15 to 30 µM | 0% | 0% | 0% | 8 |
| CC(=O)N[C@@H](CC(C)C)C(=O)N[C@H](C(=O)N[C@@H](Cc1ccccc1)C(=O)N[C@]1(C)CCCCCCC=CCCC[C@@](C)(C(=O)N[C@@H](CO)C(=O)N[C@@H](C)C(=O)N[C@@H](C)C(N)=O)NC(=O)[C@H](CC(C)C)NC(=O)[C@H](C)NC(=O)[C@H](C(C)C)NC(=O)[C@H](Cc2c[nH]c3ccccc23)NC(=O)[C@H](Cc2ccc(O)cc2)NC(=O)[C@H](C)NC1=O)[C@@H](C)O [compound 196] (Ac-LTF[R8]AYWVAL[S5]SAA-NH2; staple 4-11) | 1 | 4 | 33 | 26 | < 5 µM | 0% | 0% | 3% |  |
| CC(=O)N[C@@H](CC(C)C)C(=O)N[C@H](C(=O)N[C@@H](Cc1ccccc1)C(=O)N[C@]1(C)CCCCCCC=CCCC[C@@](C)(C(=O)N[C@@H](CO)C(=O)N[C@H](C(=O)N[C@@H](CO)C(N)=O)C(C)C)NC(=O)[C@H](CC(C)C)NC(=O)[C@H](CCC(N)=O)NC(=O)[C@H](C)NC(=O)[C@H](Cc2c[nH]c3ccccc23)NC(=O)[C@H](Cc2ccc(O)cc2)NC(=O)[C@H](C)NC1=O)[C@@H](C)O [compound 121] (Ac-LTF[R8]AYWAQL[S5]SVS-NH2; staple 4-11) | 1 | 5 | 19 | 30 | < 5 µM | 1% | 1% | 7% |  |
| CC(=O)N[C@@H](CCC(=O)O)C(=O)N[C@H](C(=O)N[C@@H](Cc1ccccc1)C(=O)N[C@]1(C)CCCCCCC=CCCC[C@@](C)(C(=O)N[C@@H](CO)C(=O)N[C@H](C(=O)N[C@@H](C)C(N)=O)C(C)C)NC(=O)[C@H](CC(C)C)NC(=O)[C@H](CCC(N)=O)NC(=O)[C@H](C)NC(=O)[C@H](Cc2c[nH]c3ccccc23)NC(=O)[C@H](Cc2ccc(O)cc2)NC(=O)[C@H](C(C)C)NC1=O)[C@@H](C)O [compound 126] (Ac-ETF[R8]VYWAQL[S5]SVA-NH2; staple 4-11) | 1 | 1 | 6 | 30 | > 30 µM | 1% | 1% | 1% |  |
| CC(=O)N[C@@H](CCC(=O)O)C(=O)N[C@H](C(=O)N[C@@H](Cc1ccccc1)C(=O)N[C@]1(C)CCCCCCC=CCCC[C@@](C)(C(=O)N[C@@H](CO)C(=O)N[C@@H](C)C(=O)N[C@@H](C)C(N)=O)NC(=O)[C@H](CC(C)C)NC(=O)[C@H](CCC(N)=O)NC(=O)[C@H](C)NC(=O)[C@H](Cc2c[nH]c3ccccc23)NC(=O)[C@H](Cc2ccc(O)cc2)NC(=O)[C@H](C(C)C)NC1=O)[C@@H](C)O [compound 125] (Ac-ETF[R8]VYWAQL[S5]SAA-NH2; staple 4-11) | 1 | 3 | 9 | 29 | 5 to 15 µM | 0% | 0% | 2% |  |
| CC[C@H](C)[C@H](NC(=O)[C@H](C)NC(=O)[C@H](C)NC(=O)[C@]1(C)CCCC=CCCCCCC[C@@](C)(NC(=O)[C@H](Cc2ccccc2)NC(=O)[C@@H](NC(=O)[C@H](CCC(=O)O)NC(C)=O)[C@@H](C)O)C(=O)N[C@@H](CCC(=O)O)C(=O)N[C@@H](Cc2c[nH]cn2)C(=O)N[C@@H](Cc2c[nH]c3ccccc23)C(=O)N[C@@H](C)C(=O)N[C@@H](CCC(N)=O)C(=O)N[C@@H](CC(C)C)C(=O)N1)C(=O)N[C@H](C)C(N)=O (single isomer, unassigned) [compound 175] | 1 | 5 | 12 | 21 | > 30 µM | 3% | 1% | 0% |  |
| CC(=O)N[C@@H](CC(C)C)C(=O)N[C@H](C(=O)N[C@@H](Cc1ccccc1)C(=O)N[C@]1(C)CCCCCC/C=C/CCC[C@@](C)(C(=O)N[C@@H](CO)C(=O)N[C@@H](C)C(=O)N[C@@H](C)C(N)=O)NC(=O)[C@H](CC(C)C)NC(=O)[C@H](CCC(N)=O)NC(=O)[C@H](C)NC(=O)[C@H](Cc2c[nH]c3cc(Cl)ccc23)NC(=O)[C@H](Cc2ccc(O)cc2)NC(=O)[C@H](C)NC1=O)[C@@H](C)O [compound 99] (Ac-LTF[R8]AY[Trp(6-Cl)]AQL[S5]SAA-NH2; staple (E) 4-11) | 1 | 7 | 31 | 33 | < 5 µM | 1.5% | 2% | 3.5% |  |
| CC(=O)N[C@@H](CC(C)C)C(=O)N[C@H](C(=O)N[C@@H](Cc1ccccc1)C(=O)N[C@]1(C)CCCCCC/C=C/CCC[C@@](C)(C(=O)N[C@@H](C)C(=O)N[C@@H](C)C(=O)N[C@@H](C)C(=O)N[C@@H](C)C(=O)N[C@@H](C)C(=O)N[C@H](C)C(N)=O)NC(=O)[C@H](CC2CCC2)NC(=O)[C@H](CCC(N)=O)NC(=O)[C@H](C)NC(=O)[C@H](Cc2c[nH]c3ccccc23)NC(=O)[C@H](Cc2ccc(C(=O)O)cc2)NC(=O)[C@H](CCC(=O)O)NC1=O)[C@@H](C)O [compound 349] | 1 | 11 | 16 | 24 | 5 to 15 µM | 0% | 0% | 0% | 8 |
